Holding throughout (assay): NCI-60 cell line screen, 48 h
For test [1], the system named is SK-MEL-2 melanoma.
The subject of test [2] is BT-549 breast.
The subject of test [3] is ACHN renal.
Test [4] relates to M14 melanoma.
The subject of test [5] is UO-31 renal.
For test [6], the system named is HT29 colon.
In test [7] the test system is SK-MEL-28 melanoma.
In test [8] the test system is CAKI-1 renal.
Test [9] has as its system NCI-H460 lung.
Test [10] concerns SR leukemia.

Our source for the GI50 and TGI values is PubChem BioAssay (NCI).

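Grown in 96-well plates, cells were treated for 48 hours with each compound at five concentrations. Insufficient inhibition: endpoint recorded as highest concentration tested. The concentration for 50% growth inhibition is given as GI50. TGI: concentration producing complete growth inhibition.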 Some results are limits rather than exact numbers.

For `[Cu].c1ccc2c(c1)C1=NC2=NC2=NC(=NC3=NC(=NC4=NC(=N1)c1ccccc14)c1ccccc13)c1ccccc12`, the GI50 in [1], in test [2], in [3], in [4], in test [5] and in [6] was > 100 µM throughout. The GI50 in test [7], in test [8] and in [9] was > 100 µM throughout. Further, the TGI in test [1], in test [2], in test [3], in [4], in test [5] and in [6] was > 100 µM each time. Further, the TGI in [7], in test [8] and in [9] was > 100 µM throughout.
With `[O-]c1ccccc1C=NCCN=Cc1ccccc1[O-].[O]=[U+2]=[O]`, the GI50 is 22 µM in test [1]; 25.9 µM in test [3]; 51.1 µM in test [10]; 40.9 µM in test [4]; 29.8 µM in [5]; > 100 µM in [6]. Moreover, the results for the GI50 in [7], in [8] and in [9] were > 50.9 µM, > 46.7 µM and 19.6 µM, respectively. Further, the TGI in [1] was > 62.7 µM; in [3] it was > 60.7 µM; in test [10], > 100 µM; in test [4], > 85.8 µM; in test [5], > 60.6 µM; in [6], > 100 µM. The TGI in [7] was > 78.7 µM; in test [8] it was > 67.6 µM; in test [9], 43.7 µM.
For the compound `Clc1ccc(NCNC2Nc3ccccc3N2)cc1Cl`, the TGI is 79.6 µM in test [1]; > 100 µM in [3]; > 100 µM in [10]; > 100 µM in [4]; > 100 µM in [5]; 64 µM in test [6]. Further, the TGI in test [7], in test [8] and in test [9] was > 100 µM each time.
With `CC(C)CC(NC(=O)C(O)C(N)Cc1ccccc1)C(=O)O` (configuration not stated), the TGI in test [1], in [3], in [10], in [4], in test [5] and in test [6] was > 100 µM each time. For the same compound, the TGI in test [7], in test [8] and in test [9] was > 100 µM throughout.
Turning to `CCOc1ccc2c(c1)[n+]([O-])c(C(N)=O)c(N)[n+]2[O-]`, the TGI in test [1], in test [3], in [10], in [4], in test [5] and in [6] was > 100 µM in each case. Also, the TGI in test [7], in test [8] and in [9] was > 100 µM in each case.
On to `CCN(CC)C(=O)c1cccc2c(OC)ccc(OC)c12`, for which the TGI in test [1], in test [3], in test [10], in test [4], in [5] and in [6] was > 100 µM each time. The TGI in test [7], in test [8] and in test [9] was > 100 µM in each case.
As for `CC1=NC2(C(=O)O)C3(C(=O)O)N=C(C)OC3(C(F)(F)F)C2(C(F)(F)F)O1` (configuration not stated), the TGI in test [1], in test [3], in test [10], in test [4], in test [5] and in test [6] was > 100 µM in each case. Further, the TGI in test [7], in test [8] and in test [9] was > 100 µM in each case.
In the case of `Clc1ccc2c(NC3CCC(NC4CCCCC4)CC3)ccnc2c1` (configuration not stated), the GI50 was 1.97 µM in test [1]; 12.3 µM in test [2]; 4.85 µM in [3]; 1.72 µM in test [4]; 3.42 µM in [5]; 1.57 µM in test [6]. The GI50 in test [7] is 1.79 µM; in test [8], 1.81 µM; in test [9], 5.27 µM. The TGI in test [1] turned out to be 3.95 µM; in test [2] it was 25.1 µM; in test [3] it was 17.1 µM; in test [4], 3.19 µM; in test [5], 16 µM; in test [6] it was 7.88 µM. For the same compound, the TGI is 3.3 µM in test [7], 6.63 µM in test [8] and 18.6 µM in test [9].
For `NCCNCCNCc1c2ccccc2c(CNCCNCCN)c2ccccc12`, the TGI in test [1], in [3], in test [10], in test [4], in [5] and in [6] was > 100 µM in each case. For the same compound, the TGI in [7], in test [8] and in test [9] was > 100 µM in each case.
Turning to `O=C(O)CN(CCN(CC(=O)O)CC(=O)O)CCN(CC(=O)O)CC(=O)O`, the GI50 is 3.16 µM in test [1]; 2.77 µM in [2]; 2.59 µM in test [3]; 5.29 µM in test [4]; 3.99 µM in test [6]; 4.05 µM in test [7]. For the same compound, the results for the GI50 in [8] and in test [9] were 3.58 µM and 2.49 µM, respectively. Also, the TGI in [1] came to 9.8 µM; in test [2], 9.45 µM; in test [3], 13.6 µM; in [4] it was 21.5 µM; in test [6] it was 16.2 µM; in test [7], 17.2 µM. Besides, the TGI amounted to 20.2 µM in [8] and 7.09 µM in [9].
On to `CCOP(=O)(OCC)C(C(=O)OC)C(=O)C(=O)Nc1cccc([N+](=O)[O-])c1` (configuration not stated), for which the TGI in [1], in test [3], in [10], in test [4], in test [5] and in test [6] was > 100 µM throughout. For the same compound, the TGI in test [7], in test [8] and in test [9] was > 100 µM throughout.
`COc1cc(OC)c(OC)cc1/C=C/c1ccccn1`: the TGI in test [1], in test [2], in test [3], in test [4], in [5] and in test [6] was > 10 µM each time. Moreover, the TGI in test [7], in test [8] and in [9] was > 10 µM in each case.
